The source of these data is patent publication US6933295B2, “Substituted isoindoles and the use thereof” (Bayer Aktiengesellschaft, priority 2001, dated 2005).

One may read the melting point as the temperature of the solid-liquid transition.

The compound `N#CCOc1ccc(CN2C(=O)c3cccc(NC(=O)c4ccc(Cl)s4)c3C2=O)cc1` [Example 6, 5-Chloro-N-{2-[4-(cyanomethoxy)benzyl]-1,3-dioxo-2,3-dihydro-1H-isoindol-4-yl}-2-thiophenecarboxamide] showed a melting point of 199 °C. For `CC(C#N)Oc1cccc(CN2C(=O)c3cccc(NC(=O)c4ccc(Cl)s4)c3C2=O)c1` (centres unmarked) [Example 7, 5-Chloro-N-{2-[3-(1-cyanoethoxy)benzyl]-1,3-dioxo-2,3-dihydro-1H-isoindol-4-yl}-2-thiophenecarboxamide], the melting point amounted to 88 °C.
